In PubChem BioAssay AID270 (DTP/NCI, 2004) one finds T/C data, which are given here for 15 compounds.

“And” between values parts separate entries of the source, which are not always exact repeats. Equal values may be shown once. Inconclusive results are not listed.

In this assay the test system is BDF1 mice, s.c. Lewis lung carcinoma, T/C %. Briefly: NCI In Vivo Anticancer Drug Screen. Data for tumor model Lewis Lung Carcinoma (subcutaneous) in B6D2F1 (BDF1) mice. The gist of the method: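 Transplanted tumors grown in mice; compound vs vehicle dosing; endpoint survival or tumor size; ratio T/C.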
Setting [1] is: endpoint: mean tumor weight, dose: 25.0 mg/kg/injection, schedule: Q01DX011 (ip), vehicle: saline, higher = larger tumour.
Where [2] appears, read: endpoint: mean tumor weight, dose: 50.0 mg/kg/injection, schedule: Q01DX011 (ip), vehicle: saline, higher = larger tumour.
Setting [3] is: endpoint: mean tumor weight, dose: 100.0 mg/kg/injection, schedule: Q01DX011 (ip), vehicle: saline, higher = larger tumour.
Setting [4] is: endpoint: mean tumor weight, dose: 75.0 mg/kg/injection, schedule: Q01DX011 (ip), vehicle: other, higher = larger tumour.
[5] abbreviates: endpoint: mean tumor weight, dose: 150.0 mg/kg/injection, schedule: Q01DX011 (ip), vehicle: other, higher = larger tumour.
The mark [6] stands for this setting: endpoint: mean tumor weight, dose: 300.0 mg/kg/injection, schedule: Q01DX011 (ip), vehicle: other, higher = larger tumour.

With `Cc1cc(N(CCCl)CCCl)ccc1N=Nc1ccccc1C(=O)O`, the T/C is, setting by setting: (endpoint: median survival time, dose: 2.0 mg/kg/injection, schedule: Q01DX009 (ip), vehicle: saline with Tween-80, higher = longer survival) 101 % of control; (endpoint: median survival time, dose: 4.0 mg/kg/injection, schedule: Q01DX009 (ip), vehicle: saline with Tween-80, higher = longer survival) 105 % of control and 111 % of control; (endpoint: median survival time, dose: 8.0 mg/kg/injection, schedule: Q01DX009 (ip), vehicle: saline with Tween-80, higher = longer survival) 96 % of control and 104 % of control; (endpoint: median survival time, dose: 10.0 mg/kg/injection, schedule: Q01DX001 (ip), vehicle: saline with Tween-80, higher = longer survival) 107 % of control; (endpoint: median survival time, dose: 20.0 mg/kg/injection, schedule: Q01DX001 (ip), vehicle: saline with Tween-80, higher = longer survival) 92 % of control; (endpoint: median survival time, dose: 32.0 mg/kg/injection, schedule: Q04DX003 (ip), vehicle: saline with Tween-80, higher = longer survival) 116 % of control.
Regarding `CCc1ccc(NC(=O)N(CCCl)N=O)cc1`, the T/C was 108 % of control (endpoint: median survival time, dose: 1.9 mg/kg/injection, schedule: Q01DX009 (ip), vehicle: Klucel (hydroxypropylcellulose) (HPC), higher = longer survival); 98 % of control (endpoint: median survival time, dose: 7.5 mg/kg/injection, schedule: Q01DX009 (ip), vehicle: Klucel (hydroxypropylcellulose) (HPC), higher = longer survival); 95 % of control (endpoint: median survival time, dose: 15.0 mg/kg/injection, schedule: Q01DX009 (ip), vehicle: Klucel (hydroxypropylcellulose) (HPC), higher = longer survival).
Consider `CC(=O)NC1=C(N2CC2)C(=O)C(NC(C)=O)=C(N2CC2)C1=O`, for which the T/C was 105 % of control and 111 % of control (endpoint: median survival time, dose: 0.12 mg/kg/injection, schedule: Q01DX009 (ip), vehicle: saline with Tween-80, higher = longer survival); 102 % of control and 119 % of control (endpoint: median survival time, dose: 0.25 mg/kg/injection, schedule: Q01DX005 (ip), vehicle: saline with Tween-80, higher = longer survival); 102 % of control and 112 % of control (endpoint: median survival time, dose: 0.25 mg/kg/injection, schedule: Q01DX009 (ip), vehicle: saline with Tween-80, higher = longer survival); 98 % of control and 109 % of control (endpoint: median survival time, dose: 0.5 mg/kg/injection, schedule: Q01DX005 (ip), vehicle: saline with Tween-80, higher = longer survival); 87 % of control and 105 % of control (endpoint: median survival time, dose: 0.5 mg/kg/injection, schedule: Q01DX009 (ip), vehicle: saline with Tween-80, higher = longer survival); 115 % of control (endpoint: median survival time, dose: 1.0 mg/kg/injection, schedule: Q01DX005 (ip), vehicle: saline with Tween-80, higher = longer survival). Besides, the T/C (endpoint: median survival time, dose: 1.0 mg/kg/injection, schedule: Q01DX009 (ip), vehicle: saline with Tween-80, higher = longer survival) is 123 % of control and the T/C (endpoint: median survival time, dose: 2.0 mg/kg/injection, schedule: Q01DX005 (ip), vehicle: saline with Tween-80, higher = longer survival) was 94 % of control.
In the case of `C[C@@H]1C[C@@H]([C@H](O)CC2CC(=O)NC(=O)C2)C(=O)[C@@H](C)C1`, the T/C runs as follows: (endpoint: mean tumor weight, dose: 15.0 mg/kg/injection, schedule: Q01DX011 (ip), vehicle: carboxymethylcellulose (CMC), higher = larger tumour) 62 % of control and 81 % of control; (endpoint: mean tumor weight, dose: 30.0 mg/kg/injection, schedule: Q01DX011 (ip), vehicle: carboxymethylcellulose (CMC), higher = larger tumour) 50 % of control and 57 % of control.
For the compound `NC(=O)n1cccn1`, the T/C by setting is: under setting [1], 76 % of control; (endpoint: mean tumor weight, dose: 25.0 mg/kg/injection, schedule: Q01DX011 (ip), vehicle: water, higher = larger tumour) 88 % of control; under setting [2], 61 % of control; (endpoint: mean tumor weight, dose: 50.0 mg/kg/injection, schedule: Q01DX011 (ip), vehicle: water, higher = larger tumour) 61 % of control; under setting [3], 49 % of control; (endpoint: mean tumor weight, dose: 100.0 mg/kg/injection, schedule: Q01DX011 (ip), vehicle: water, higher = larger tumour) 39 % of control.
On to `O=C1CCC(=O)N1Br`, for which the T/C reads like this: (endpoint: mean tumor weight, dose: 50.0 mg/kg/injection, schedule: Q01DX011 (ip), vehicle: other, higher = larger tumour) 99 % of control; under setting [4], 59 % of control and 75 % of control; under setting [5], 76 % of control; under setting [6], 115 % of control.
As to `C1CCNCC1`, the T/C is 87 % of control (endpoint: mean tumor weight, dose: 6.25 mg/kg/injection, schedule: Q01DX011 (ip), vehicle: saline, higher = larger tumour); 87 % of control (endpoint: mean tumor weight, dose: 12.5 mg/kg/injection, schedule: Q01DX011 (ip), vehicle: saline, higher = larger tumour); 94 % of control under setting [1]; 73 % of control and 95 % of control under setting [2]; 83 % of control under setting [3].
For the compound `Nc1ccc(OC(=O)Oc2ccc(N)cc2)cc1`, the T/C is 60 % of control (endpoint: mean tumor weight, dose: 31.3 mg/kg/injection, schedule: Q01DX011 (ip), vehicle: saline, higher = larger tumour); 79 % of control (endpoint: mean tumor weight, dose: 62.5 mg/kg/injection, schedule: Q01DX011 (ip), vehicle: saline, higher = larger tumour); 49 % of control (endpoint: mean tumor weight, dose: 125.0 mg/kg/injection, schedule: Q01DX011 (ip), vehicle: saline, higher = larger tumour); 18 % of control (endpoint: mean tumor weight, dose: 250.0 mg/kg/injection, schedule: Q01DX011 (ip), vehicle: saline, higher = larger tumour).
Turning to `COc1ccc(CN(CCOC(=O)c2ccc(OC)cc2)CCN(CCOC(=O)c2ccc(OC)cc2)Cc2ccc(OC)cc2)cc1`, the T/C (endpoint: median survival time, dose: 25.0 mg/kg/injection, schedule: Q01DX009 (ip), vehicle: other, higher = longer survival) is 100 % of control; the T/C (endpoint: median survival time, dose: 50.0 mg/kg/injection, schedule: Q01DX009 (ip), vehicle: other, higher = longer survival) was 98 % of control; the T/C (endpoint: median survival time, dose: 100.0 mg/kg/injection, schedule: Q01DX009 (ip), vehicle: other, higher = longer survival) was 93 % of control; the T/C (endpoint: median survival time, dose: 200.0 mg/kg/injection, schedule: Q01DX009 (ip), vehicle: other, higher = longer survival) is 100 % of control.
As to `CCOC(=O)c1c[nH]c2c(Cl)c(C)ccc2c1=O`, the T/C is 106 % of control (endpoint: mean tumor weight, dose: 104.0 mg/kg/injection, schedule: Q01DX011 (ip), vehicle: other, higher = larger tumour); 111 % of control (endpoint: mean tumor weight, dose: 155.0 mg/kg/injection, schedule: Q01DX011 (ip), vehicle: other, higher = larger tumour); 75 % of control (endpoint: mean tumor weight, dose: 350.0 mg/kg/injection, schedule: Q01DX011 (ip), vehicle: other, higher = larger tumour).
Consider `CCC(=O)O[C@H]1CC[C@H]2[C@@H]3CCC4=CC(=O)CC[C@]4(C)[C@H]3CC[C@]12C`, for which the T/C was 86 % of control (endpoint: mean tumor weight, dose: 125.0 mg/kg/injection, schedule: Q01DX011 (ip), vehicle: steriod suspending solution, higher = larger tumour); 70 % of control (endpoint: mean tumor weight, dose: 250.0 mg/kg/injection, schedule: Q01DX011 (ip), vehicle: steriod suspending solution, higher = larger tumour); 84 % of control (endpoint: mean tumor weight, dose: 500.0 mg/kg/injection, schedule: Q01DX011 (ip), vehicle: steriod suspending solution, higher = larger tumour); 90 % of control (endpoint: median survival time, dose: 40.0 mg/kg/injection, schedule: Q02DX009 (ip), vehicle: Klucel (hydroxypropylcellulose) (HPC), higher = longer survival); 97 % of control (endpoint: median survival time, dose: 80.0 mg/kg/injection, schedule: Q02DX009 (ip), vehicle: Klucel (hydroxypropylcellulose) (HPC), higher = longer survival); 103 % of control (endpoint: median survival time, dose: 160.0 mg/kg/injection, schedule: Q02DX009 (ip), vehicle: Klucel (hydroxypropylcellulose) (HPC), higher = longer survival). In addition, for the setting “endpoint: median survival time, dose: 320.0 mg/kg/injection, schedule: Q02DX009 (ip), vehicle: Klucel (hydroxypropylcellulose) (HPC), higher = longer survival”, the T/C is 90 % of control.
Take `COc1ccc2cc3[n+](cc2c1OC)CCc1cc2c(cc1-3)OCO2`: the T/C by setting is: (endpoint: mean tumor weight, dose: 12.0 mg/kg/injection, schedule: Q01DX011 (ip), vehicle: saline, higher = larger tumour) 96 % of control; (endpoint: median survival time, dose: 0.12 mg/kg/injection, schedule: Q01DX009 (ip), vehicle: Klucel (hydroxypropylcellulose) (HPC), higher = longer survival) 102 % of control; (endpoint: median survival time, dose: 0.25 mg/kg/injection, schedule: Q01DX009 (ip), vehicle: Klucel (hydroxypropylcellulose) (HPC), higher = longer survival) 107 % of control; (endpoint: median survival time, dose: 0.5 mg/kg/injection, schedule: Q01DX009 (ip), vehicle: Klucel (hydroxypropylcellulose) (HPC), higher = longer survival) 112 % of control; (endpoint: median survival time, dose: 1.0 mg/kg/injection, schedule: Q01DX009 (ip), vehicle: Klucel (hydroxypropylcellulose) (HPC), higher = longer survival) 110 % of control; (endpoint: median survival time, dose: 2.0 mg/kg/injection, schedule: Q01DX009 (ip), vehicle: Klucel (hydroxypropylcellulose) (HPC), higher = longer survival) 95 % of control. For the same compound, the T/C runs as follows: (endpoint: median survival time, dose: 4.0 mg/kg/injection, schedule: Q01DX009 (ip), vehicle: Klucel (hydroxypropylcellulose) (HPC), higher = longer survival) 100 % of control; (endpoint: median survival time, dose: 8.0 mg/kg/injection, schedule: Q01DX009 (ip), vehicle: Klucel (hydroxypropylcellulose) (HPC), higher = longer survival) 92 % of control.
Regarding `CN(C)C(=O)N(CCCl)N=O`, the T/C was 102 % of control (endpoint: median survival time, dose: 6.25 mg/kg/injection, schedule: Q01DX001 (ip), vehicle: water, higher = longer survival) and 112 % of control (endpoint: median survival time, dose: 12.5 mg/kg/injection, schedule: Q01DX001 (ip), vehicle: water, higher = longer survival).
Consider `Nc1nc(SCc2ccccc2)c2ncn(C3CCCC3)c2n1`, for which the T/C under setting [4] is 115 % of control; the T/C under setting [5] is 81 % of control; the T/C under setting [6] was 54 % of control; the T/C (endpoint: mean tumor weight, dose: 600.0 mg/kg/injection, schedule: Q01DX011 (ip), vehicle: other, higher = larger tumour) is 47 % of control and 65 % of control; the T/C (endpoint: mean tumor weight, dose: 750.0 mg/kg/injection, schedule: Q01DX011 (ip), vehicle: other, higher = larger tumour) was 52 % of control.
As to `Cc1ccccn1`, the T/C was 93 % of control (endpoint: mean tumor weight, dose: 62.5 mg/kg/injection, schedule: Q01DX011 (ip), vehicle: carboxymethylcellulose (CMC), higher = larger tumour); 112 % of control (endpoint: mean tumor weight, dose: 125.0 mg/kg/injection, schedule: Q01DX011 (ip), vehicle: carboxymethylcellulose (CMC), higher = larger tumour); 94 % of control (endpoint: mean tumor weight, dose: 250.0 mg/kg/injection, schedule: Q01DX011 (ip), vehicle: carboxymethylcellulose (CMC), higher = larger tumour).
